From patent US9261498B2, “Biomarker for sensitivity to mTOR inhibitor therapy in kidney cancer” (The Regents of the University of California, priority 2005, dated 2016)
Entries after “also recorded” stand apart in the source; their conditions may differ.

System: SN12C-VHLshRNA-HIF-1α mutant and SN12C-VHLshRNA-HIF-2α mutant cells
Test: In vitro growth of VHL knockdown cells expressing prolyl hydroxylation defective HIF mutants
Assay type: cell-based, human
Conditions: 1 or 10 nM CCI-779, 5 days
Experimental: FIGS. 4A-4C. Rescue of CCI-779 growth suppression by HIF-1-α and HIF-2-α prolyl hydcroxylase mutants. SN12C-CSCG-VHLshRNA cells stably infected with the prolyl hydroxylation defective cDNA mutants p-Babe-puro-HA-HIF-1α (P564A), HIF-2α (P405A; P531A) or backbone vector were treated with CCI-779 or vehicle and harvested 24 hours later. (a) Lysates were subjected to immunoblotting for HIF-1α, HIF-2α, GLUT-1, CA-IX, p-eIF4G, p-S6 and β-Actin as loading control. (b) SN12C-VHLshRNA, SN12C-VHLshRNA-HIF-1α mutant, SN12C-VHLshRNA-HIF-2α mutant cells (1×10^5) were cultured in 10% serum rich media, in the presence of vehicle, 1 or 10 nM of CCI-779 for 5 days. Cell growth was measured by cell counts (n=3). […]
For in vitro experiments, cells (5×10^4) were plated and treated with 1 and 10 nM CCI-779 (kind gift of J. Gibbons, Wyeth) or vehicle (ethanol). On day 5-post treatment, cells were trypsinized, resuspended in DMEM with 10% FBS and counted using the VI CELL counter (Beckman Coulter), according to the manufacturer's instructions. […] In vivo tumorigenicity was measured by injection of 5×10^5 SN12C-CSCG, ACHN-CSCG, SN12C-CSCG-VHLshRNAi, ACHN-CSCG-VHLshRNAi, SN12C-CSCG-VHLshRNAi-pBABE, SN12C-CSCG-VHLshRNAi-pBABE-HA-HIF-2α (P405A; P531A) cells in 100 μl of Matrigel (Collaborative Biomedical) subcutaneously into the flanks of SCID mice. […]

CO[C@H]1C[C@@H]2CC[C@@H](C)[C@@](O)(O2)C(=O)C(=O)N2CCCC[C@H]2C(=O)O[C@H]([C@H](C)C[C@@H]2CC[C@@H](OC(=O)C(C)(CO)CO)[C@H](OC)C2)CC(=O)[C@H](C)/C=C(\C)[C@@H](O)[C@@H](OC)C(=O)[C@H](C)C[C@H](C)/C=C/C=C/C=C/1C [CCI-779]
growth inhibitory effect of CCI-779 in cells expressing HIF mutants, in vitro: completely rescued; also recorded: reversal of both the in vitro and in vivo sensitivity
